# According to patent publication US8679514B2, “Fungicidal mixtures based on azolopyrimidinylamines” (BASF SE, priority 2005, dated 2014):
# Like-named read-outs stand apart in the source and are kept apart here.
# Legend:
# Plasmopara viticola [1] = experiment: whole plant or invertebrate; format: in vivo; conditions: read-out: Observed activity (%)
# Phytophthora infestans [2] = experiment: microbe, parasite or virus in culture; format: cell-based; conditions: for inhibition at 0.016 µg/mL / inhibition at 0.25 µg/mL / inhibition at 1 µg/mL / inhibition at […]: Phytophthora infestans, read-out: Observed activity (%)
# Pyricularia oryzae = experiment: microbe, parasite or virus in culture; format: cell-based; conditions: Pyricularia oryzae, read-out: Observed activity (%)
# Phytophthora infestans [3] = experiment: whole plant or invertebrate; format: in vivo; conditions: for Observed activity (%): in vivo
# Plasmopara viticola [4] = experiment: whole plant or invertebrate; format: in vivo; conditions: read-out: Observed activity (%); remark: listed apart in the source
# Botrytis cinerea = experiment: Activity against the gray mold pathogen Botrytis cinerea in the microtiter test; format: cell-based; conditions: Botrytis cinerea, single active compound, read-out: Observed activity (%); for inhibition at […]: Conc. 0.063 mg/l; for inhibition at 0.25 µg/mL: Conc. 0.25 mg/l; for inhibition at 16 µg/mL: Conc. 16 mg/l
# Septoria tritici = experiment: Activity against the speckled leaf blotch pathogen Septoria tritici in the microtiter test; format: cell-based; conditions: single active compound
# Phytophthora infestans [5] = experiment: whole plant or invertebrate; format: in vivo; conditions: 144 h, read-out: Efficacy in % of the untreated control
compound,measurement,setting,value
"CC1(c2ccc(Oc3ccccc3)cc2)OC(=O)N(Nc2ccccc2)C1=O (racemic) [famoxadone, (RS)-3-anilino-5-methyl-5-(4-phenoxyphenyl)-1,3-oxazolidine-2,4-dione]",inhibition at 4 µg/mL,Plasmopara viticola [1],0%
"CCCCCCCCc1c(CC)nc2ncnn2c1N [Compound I-110, 5-ethyl-6-octyl-[1,2,4]triazolo[1,5-a]pyrimidin-7-ylamine]",inhibition at 0.016 µg/mL,Phytophthora infestans [2],1%
same,inhibition at 0.25 µg/mL,Phytophthora infestans [2],5%
same,inhibition at 1 µg/mL,Phytophthora infestans [2],59%
same,inhibition at […],Phytophthora infestans [2],3%
same,inhibition at 16 µg/mL,Pyricularia oryzae,8%
same,inhibition at 4 µg/mL,"Phytophthora infestans [3]; Phytophthora infestans, read-out: Observed activity (%)",11%
same,inhibition at 0.25 µg/mL,Plasmopara viticola [1],0%
same,inhibition at 4 µg/mL,Plasmopara viticola [1],0%
same,inhibition at 4 µg/mL,Plasmopara viticola [4],0%
same,inhibition at […],Botrytis cinerea,8%
same,inhibition at 0.25 µg/mL,Botrytis cinerea,18%
"CCCCCCCCc1c(CC)nc2nc(N)nn2c1N [Compound I-120, 5-ethyl-6-octyl-[1,2,4]triazolo[1,5-a]pyrimidine-2,7-diamine]",inhibition at 0.016 µg/mL,Phytophthora infestans [2],0%
same,inhibition at 0.25 µg/mL,Phytophthora infestans [2],6%
same,inhibition at […],Phytophthora infestans [2],2%
same,inhibition at […],"Septoria tritici; Zymoseptoria tritici, 0.063 mg/l, read-out: Observed activity (%)",0%
same,inhibition at 16 µg/mL,Pyricularia oryzae,25%
same,pest or weed control at 16 ppm,Phytophthora infestans [5],33%
same,inhibition at […],Botrytis cinerea,0%
same,inhibition at 1 µg/mL,Botrytis cinerea; Conc. 1 mg/l,9%
same,inhibition at 16 µg/mL,Botrytis cinerea,15%
"CCCCCCCCc1c(CCC)nc2ncnn2c1N [Compound I-180, 6-octyl-5-propyl-[1,2,4]triazolo[1,5-a]pyrimidin-7-ylamine]",inhibition at 0.016 µg/mL,Phytophthora infestans [2],0%
same,inhibition at 0.25 µg/mL,Phytophthora infestans [2],8%
same,inhibition at 1 µg/mL,Phytophthora infestans [2],17%
same,inhibition at […],Phytophthora infestans [2],2%
same,inhibition at 1 µg/mL,Pyricularia oryzae,15%
same,pest or weed control at 16 ppm,Phytophthora infestans [5],0%
same,pest or weed control at 63 ppm,Phytophthora infestans [5],33%
same,inhibition at 0.016 µg/mL,Botrytis cinerea; Conc. 0.016 mg/l,3%
same,inhibition at 0.25 µg/mL,Botrytis cinerea,13%
"CCCCCCCCc1c(COC)nc2ncnn2c1N [Compound I-245, 5-methoxymethyl-6-octyl-[1,2,4]triazolo[1,5-a]pyrimidin-7-ylamine]",inhibition at 0.016 µg/mL,Phytophthora infestans [2],0%
same,inhibition at 0.25 µg/mL,Phytophthora infestans [2],12%
same,inhibition at […],Phytophthora infestans [2],0%
same,inhibition at 0.25 µg/mL,Pyricularia oryzae,10%
same,inhibition at 16 µg/mL,Pyricularia oryzae,23%
same,pest or weed control at 4 ppm,Phytophthora infestans [5],0%
same,inhibition at 0.25 µg/mL,Botrytis cinerea,0%
"[Cu+2].[OH-].[OH-] [Cu(OH)2, copper hydroxide, reference compound]",Observed activity (%),Phytophthora infestans [2],2%
same,Observed activity (%),Phytophthora infestans [3],11%
"COC(=O)NCc1cc(C(C)=NOCc2cccc(C)c2)ccc1Cl [[B-6], methyl (2-chloro-5-[1-(3-methylbenzyloxyimino)-ethyl]benzyl)carbamate, reference compound]",inhibition at 0.25 µg/mL,Phytophthora infestans [2],10%
same,inhibition at 16 µg/mL,Plasmopara viticola [1],0%
same,inhibition at 16 µg/mL,Botrytis cinerea,53%
"COC(=O)CC(NC(=O)C(NC(=O)OC(C)C)C(C)C)c1ccc(Cl)cc1 (stereo not shown) [[E-7], methyl 3-(4-chlorophenyl)-3-(2-isopropoxycarbonylamino-3-methyl-butyrylamino)propanoate]",inhibition at 0.25 µg/mL,Plasmopara viticola [1],0%
"Cc1c(Br)c2ccc(F)cc2n1S(=O)(=O)c1ncn(S(=O)(=O)N(C)C)n1 [amidosulbrom, N,N-dimethyl-3-(3-bromo-6-fluoro-2-methylindole-1-sulfonyl)-[1,2,4]triazole-1-sulfonamide]",inhibition at 4 µg/mL,Plasmopara viticola [1],22%
"CCNC(=O)NC(=O)C(C#N)=NOC [cymoxanil, 1-(2-cyano-2-methoxyiminoacetyl)-3-ethylurea, reference compound]",inhibition at 16 µg/mL,Pyricularia oryzae,12%
same,inhibition at 16 µg/mL,Plasmopara viticola [4],33%
"COc1ccc(C(=CC(=O)N2CCOCC2)c2ccc(Cl)cc2)cc1OC [dimethomorph, 3-(4-chlorophenyl)-3-(3,4-dimethoxyphenyl)-1-morpholin-4-ylpropenone, reference compound]",pest or weed control at 4 ppm,Phytophthora infestans [5],33%
same,inhibition at 16 µg/mL,Plasmopara viticola [4],67%
"N#Cc1sc2c(=O)c3ccccc3c(=O)c=2sc1C#N [dithianon, 5,10-dioxo-5,10-dihydronaphtho[2,3-b][1,4]dithiin-2,3-dicarbonitrile]",inhibition at 16 µg/mL,Plasmopara viticola [4],0%
"CCNc1nc(CC)c(C(=O)NC(C#N)c2cccs2)s1 (stereo not shown) [ethaboxam, N-(cyano-2-thienylmethyl)-4-ethyl-2-(ethylamino)-5-thiazolcarboxamide]",inhibition at 0.25 µg/mL,Plasmopara viticola [1],33%
"Cc1ccc(C(C)NC(=O)[C@@H](NC(=O)OC(C)C)C(C)C)cc1 (stereo partly drawn) [iprovalicarb, isopropyl [(1S)-2-methyl-1-(1-p-tolylethylcarbamoyl)propyl]carbamate]",inhibition at 4 µg/mL,Plasmopara viticola [1],0%
"CCC(=O)C1=C([O-])CC(C(=O)[O-])CC1=O.[Ca+2] (stereo not shown) [prohexadione-Ca, reference compound]",Observed activity (%),Septoria tritici; 0.25 mg/l,5%
manganese ethylenebis(dithiocarbanate) zinc complex [mancozeb],Observed activity (%),Phytophthora infestans [3],11%
"phosphorous acid disodium salt [phosphorous acid disodium salt (Na2HPO3), reference compound]",Observed activity (%),Phytophthora infestans [2],6%
same,Observed activity (%),Phytophthora infestans [3],33%
